These results are taken from ChEMBL document CHEMBL1155558, “New cyclic peptide and bisindolyl benzenoid metabolites from the sclerotia of Aspergillus sclerotiorum” (2000).

The subject of the assay is Spodoptera frugiperda. In words: Activity against Spodoptera frugiperda assessed as reduction in feeding rate at 50 ug/cotton leaf disk. Also noted: scale not given: the % may be the effect or the level left. In kind it is functional.

The structures appear in SMILES notation.

`CN1C(=O)[C@H](CCC(N)=O)NC(=O)CNC(=O)[C@H](Cc2ccccc2)N(C)C(=O)[C@H](Cc2ccccc2)NC(=O)CNC(=O)[C@@H]1Cc1ccccc1` [SCLERAMIDE]: the Activity was determined as 27%.
